Measured values from ChEMBL document CHEMBL6092147, “Design of inhibitors of SARS-CoV-2 papain-like protease deriving from GRL0617: Structure-activity relationships” (Bioorg Med Chem, 2024).

Test: Inhibition of SARS-CoV-2 wild type papain-like protease (PLpro) C111S mutant extracted from Escherichia coli using LKGG-AMC as substrate incubated for 60 mins by fluorescence based analysis
Design: species or system Severe acute respiratory syndrome coronavirus 2

## Cc1ccc(NC(=O)NC(N)=O)cc1C(=O)N[C@H](C)c1cccc2ccccc12
  IC50: 5.1 µM

## CCC(=O)Nc1ccc(C)c(C(=O)N[C@H](C)c2cccc3ccccc23)c1
  IC50: 6.4 µM
